Converted amounts (≈) assume the structure as drawn. Read-outs that look alike come from different tables or passages of the source. Each block holds one compound with its values, some of them ahead of it.
Tests used:
Experiment in all cases: MIC by microdilution in cation-adjusted Mueller-Hinton Broth (NCCLS)
Type in all cases: cell-based
S. Pneumoniae 49619 = details: Streptococcus pneumoniae
Description: (§1) These assays have been performed following the description given in “Methods for dilution Antimicrobial Susceptibility Tests for Bacteria that Grow Aerobically, 4th ed.; Approved standard: NCCLS Document M7-A4; National Committee for Clinical Laboratory Standards Villanova, Pa., USA, 1997”. Minimal inhibitory concentrations (MICs; mg/l) were determined in cation-adjusted Mueller-Hinton Broth (BBL) by a microdilution method following NCCLS guidelines (National Committee for Clinical Laboratory Standards. Methods for Dilution Antimicrobial Susceptibility). The pH of the test medium was 7.2-7.3. All the above Examples were tested against several Gram positive and Gram negative bacteria.

M. catarrhalis A894 = details: Moraxella catarrhalis, pH of test medium 7.2-7.3
Description: as §1

S. aureus A798 = details: Staphylococcus aureus
Description: as §1

[1] = pH of test medium 7.2-7.3, read-out: MIC S. Pneumoniae 49619
[2] = A798, pH of test medium 7.2-7.3, read-out: MIC S. aureus A798

Compound: C[C@H](N)C(=O)OC[C@H]1CN(c2ccc(OC[C@]3(O)C[C@H]4COc5c(c(F)cc6c(=O)c(C(=O)O)cn(C7CC7)c56)N4C3)c(F)c2)C(=O)O1.Cl [Example 11, (13S,16S)-16-{4-[(R)-5-((S)-2-amino-propionyloxymethyl)-2-oxo-oxazolidin-3-yl]-2-fluoro-phenoxymethyl}-1-cyclopropyl-7-fluoro-16-hydroxy-4-oxo-1,4,13,15,16,17-hexahydro-12H-11-oxa-1,14-diaza-cyclopenta[a]phenanthrene-3-carboxylic acid hydrochloride]
MIC (S. Pneumoniae 49619; in the absence of human serum, read-out: MIC against S. Pneumoniae 49619): ≤ 0.063 µg/mL

Compound: O=C(O)c1cn(C2CC2)c2c3c(c(F)cc2c1=O)N1C[C@](O)(COc2ccc(N4C[C@H](COC(=O)C5CCNCC5)OC4=O)cc2F)C[C@H]1CO3 [Example 12, (13S,16S)-1-cyclopropyl-7-fluoro-16-{2-fluoro-4-[(R)-2-oxo-5-(piperidine-4-carbonyloxymethyl)-oxazolidin-3-yl]-phenoxymethyl}-16-hydroxy-4-oxo-1,4,13,15,16,17-hexahydro-12H-11-oxa-1,14-diaza-cyclopenta[a]phenanthrene-3-carboxylic acid]
MIC (S. aureus A798; A798, human serum absent, read-out: MIC against S. aureus A798): 8 µg/mL (≈ 11.3 µM)
MIC (S. aureus A798; A798, in the presence of human serum, read-out: MIC against S. aureus A798): 2 µg/mL

Compound: O=C(O)c1cn(C2CC2)c2c3c(c(F)cc2c1=O)N1C[C@@](COc2ccc(N4C[C@H](CO)OC4=O)cc2F)(OP(=O)(O)O)C[C@H]1CO3 [Example 8, (13S,16S)-1-cyclopropyl-7-fluoro-16-[2-fluoro-4-((R)-5-hydroxymethyl-2-oxo-oxazolidin-3-yl)-phenoxymethyl]-4-oxo-16-phosphonooxy-1,4,13,15,16,17-hexahydro-12H-11-oxa-1,14-diaza-cyclopenta[a]phenanthrene-3-carboxylic acid]
MIC (S. aureus A798; A798, in the presence of human alkaline phosphatase, read-out: MIC against S. aureus A798): 0.25 µg/mL
MIC (S. aureus A798; A798, phosphatase absent, read-out: MIC against S. aureus A798): 4 µg/mL (≈ 5.89 µM)

Compound: O=C(O)c1cn(C2CC2)c2c3c(c(F)cc2c1=O)N1C[C@H](COc2ccc(N4C[C@H](CO)OC4=O)cc2F)C[C@H]1CO3 [Example 4, (13S,16R)-1-cyclopropyl-7-fluoro-16-[2-fluoro-4-((R)-5-hydroxymethyl-2-oxo-oxazolidin-3-yl)-phenoxymethyl]-4-oxo-1,4,13,15,16,17-hexahydro-12H-11-oxa-1,14-diaza-cyclopenta[a]phenanthrene-3-carboxylic acid]
MIC (S. Pneumoniae 49619; [1]): 0.25 µg/mL (≈ 0.428 µM)

Compound: O=C(O)c1cn(C2CC2)c2c3c(c(F)cc2c1=O)N1C[C@@H](COc2ccc(N4C[C@H](CO)OC4=O)cc2F)C[C@H]1CO3 [Example 5, (13S,16S)-1-cyclopropyl-7-fluoro-16-[2-fluoro-4-((R)-5-hydroxymethyl-2-oxo-oxazolidin-3-yl)-phenoxymethyl]-4-oxo-1,4,13,15,16,17-hexahydro-12H-11-oxa-1,14-diaza-cyclopenta[a]phenanthrene-3-carboxylic acid]
MIC (S. Pneumoniae 49619; [1]): 0.25 µg/mL (≈ 0.428 µM)

Results, then the compound that gave them:

MIC (S. Pneumoniae 49619; [1]): 0.25 µg/mL
Compound: O=C(O)c1cn(C2CC2)c2c3c(c(F)cc2c1=O)N1CCC(O)(COc2ccc(N4C[C@H](CO)OC4=O)cc2F)C[C@@H]1CO3 (mixture of isomers) [Example 7, (6aR,8RS)-4-cyclopropyl-11-fluoro-8-[2-fluoro-4-((R)-5-hydroxymethyl-2-oxo-oxazolidin-3-yl)-phenoxymethyl]-8-hydroxy-1-oxo-1,4,6,6a,7,8,9,10-octahydro-5-oxa-4,10a-diaza-chrysene-2-carboxylic acid]

MIC (M. catarrhalis A894): 0.5 µg/mL
MIC (S. Pneumoniae 49619; [1]): 0.25 µg/mL
MIC (S. aureus A798; [2]): 0.5 µg/mL
Compound: O=C(O)c1cn(C2CC2)c2c3c(c(F)cc2c1=O)N1CCC(O)(COc2ccc(N4C[C@H](CO)OC4=O)cc2F)C[C@H]1CO3 (mixture of isomers) [Example 6, (6aS,8RS)-4-cyclopropyl-11-fluoro-8-[2-fluoro-4-((R)-5-hydroxymethyl-2-oxo-oxazolidin-3-yl)-phenoxymethyl]-8-hydroxy-1-oxo-1,4,6,6a,7,8,9,10-octahydro-5-oxa-4,10a-diaza-chrysene-2-carboxylic acid]

MIC (S. Pneumoniae 49619; [1]): 0.25 µg/mL (≈ 0.447 µM)
Compound: O=C(O)c1c[nH]c2c3c(c(F)cc2c1=O)N1C[C@](O)(COc2ccc(N4C[C@H](CO)OC4=O)cc2F)C[C@H]1CO3 [Example 9, (13S,16S)-7-fluoro-16-[2-fluoro-4-((R)-5-hydroxymethyl-2-oxo-oxazolidin-3-yl)-phenoxymethyl]-16-hydroxy-4-oxo-1,4,13,15,16,17-hexahydro-12H-11-oxa-1,14-diaza-cyclopenta[a]phenanthrene-3-carboxylic acid]

MIC (M. catarrhalis A894): 0.125 µg/mL (≈ 0.213 µM)
MIC (S. Pneumoniae 49619; [1]): 0.25 µg/mL (≈ 0.426 µM)
MIC (S. aureus A798; [2]): 0.5 µg/mL (≈ 0.851 µM)
Compound: CCn1cc(C(=O)O)c(=O)c2cc(F)c3c(c21)OC[C@@H]1C[C@@](O)(COc2ccc(N4C[C@H](CO)OC4=O)cc2F)CN31 [Example 3, (13S,16S)-1-ethyl-7-fluoro-16-[2-fluoro-4-((R)-5-hydroxymethyl-2-oxo-oxazolidin-3-yl)-phenoxymethyl]-16-hydroxy-4-oxo-1,4,13,15,16,17-hexahydro-12H-11-oxa-1,14-diaza-cyclopenta[a]phenanthrene-3-carboxylic acid]

MIC (S. Pneumoniae 49619; [1]): ≤ 0.063 µg/mL
Compound: O=C(O)c1cn(C2CC2)c2c3c(c(F)cc2c1=O)N1C[C@](O)(COc2ccc(N4C[C@H](CO)OC4=O)cc2F)C[C@H]1CO3 [Example 1, (13S,16S)-1-cyclopropyl-7-fluoro-16-[2-fluoro-4-((R)-5-hydroxymethyl-2-oxo-oxazolidin-3-yl)-phenoxymethyl]-16-hydroxy-4-oxo-1,4,13,15,16,17-hexahydro-12H-11-oxa-1,14-diaza-cyclopenta[a]phenanthrene-3-carboxylic acid]

MIC (S. Pneumoniae 49619; [1]): 0.125 µg/mL (≈ 0.186 µM)
Compound: C[C@@H](N)C(=O)OC[C@H]1CN(c2ccc(OC[C@]3(O)C[C@H]4COc5c(c(F)cc6c(=O)c(C(=O)O)cn(C7CC7)c56)N4C3)c(F)c2)C(=O)O1 [Example 2, (13S,16S)-16-{4-[(R)-5-((R)-2-amino-propionyloxymethyl)-2-oxo-oxazolidin-3-yl]-2-fluoro-phenoxymethyl}-1-cyclopropyl-7-fluoro-16-hydroxy-4-oxo-1,4,13,15,16,17-hexahydro-12H-11-oxa-1,14-diaza-cyclopenta[a]phenanthrene-3-carboxylic acid]

Source: US8039466B2, “5-hydroxymethyl-oxazolidin-2-one antibacterials” (Actelion Pharmaceutical Ltd., priority 2006, dated 2011)
